According to patent US20240131499A1, “BIOMIMETIC CATALYSTS FOR DIVERSE INDUSTRIAL APPLICATIONS IN CHEMICAL REACTIONS” (Wisconsin Alumni Research Foundation, priority 2022, published 2024):
“And” between values parts separate entries of the source, which are not always exact repeats. Equal entries are not always repeated.

Columns and labels:
[1] = Active site analysis: rate constants for the active sites in lactose hydrolysis; conditions: 100° C.; for rate constant for the active site G1H (kG1H): homogeneous catalyst
Procedure: Addition of Ca(OAc)2 for the investigation of catalytic active sites: The rate constants for H^+ and non-dissociated carboxylic acid from the acid catalysts were determined by combining results from separate reaction kinetics experiments. […] In the presence of different amounts of Ca(OAc)2, the predicted rates can be calculated by using a linear combination of the rate constants and the concentrations of corresponding active sites (equation in FIG. 1C). […] The kG1H value for each biomimetic catalyst was then used to calculate the turnover frequency (TOF=kG1H·[Lactose]0) for comparison of catalytic activities from the engineered biomimetic catalysts in FIG. 2A. […] This analysis accounts for the contributions from the catalytic activity of H^+ (pH effect) and the catalytic activity of the active site (G1H).

[2] = Reaction kinetics analysis for lactose hydrolysis; conditions: 100° C.
Procedure: The glass vial was capped to prevent the solvent from evaporation, and the hydrolysis reaction was carried out at 100° C. in an oil bath (120 and 90° C. were used to measure activation energies) with 600-800 rpm stirring. […] 0.105 g (=0.1 mL) of liquid sample solution was collected at each day (every 18-26 h) for 5 days and diluted in 0.399 g (=0.4 mL) of MQ water for the reaction kinetics analysis, and the diluted sample was filtered by syringe filter (20 μm pore) and analyzed by HPLC.
(§1) The chemical concentrations of hydrolyzed lactose solutions were quantified by high performance liquid chromatography (HPLC) analysis. The hydrolyzed solutions with immobilized catalysts were centrifuged (2500 rpm, 20 min) to separate the immobilized catalyst in the aqueous phase solution. 0.105 g (0.1 mL) of the aqueous solution was diluted in 0.399 g (0.4 mL) of Milli-Q water (5 times dilution by volume) to analyze the concentrations of lactose, glucose, galactose, and HMF as one of by-products by glucose degradation. […] The temperature of the HPLC column was maintained at 50° C., and the flow rate of the mobile phase (pH 2 water, acidified by sulfuric acid) was 0.6 mL/min.

[3] = Solubility of the organocatalyst in water; format: physicochemical; conditions: in water at 100° C.; read-out: solubility limit
From the text: Immobilization of the organocatalyst on a solid support material can prevent catalyst precipitation by distributing the organocatalyst on the surface of the support. […] Catalytic reaction over the immobilized organocatalyst is analogous to the mechanism of enzymatic reactions. For instance, an organocatalyst complex on a well-defined support with controlled surface properties can act in an analogous fashion as an active site in the channel of an enzyme. Reactants bind on the G1H sites by the interaction between surface functionality on the support and the organocatalyst. Lower loading of catalyst on a support enhances the catalytic activity (FIGS. 16A and 1D) by forming a more uniform distribution of the complex on the support.

[4] = Lactose hydrolysis in the presence of Ca(OAc)2; conditions: 100° C.
Procedure: The glass vial was capped to prevent the solvent from evaporation, and reaction was carried out at 100° C. in an oil bath with 800 rpm stirring. 0.105 g (0.1 mL) of liquid sample solution was collected each day (every 18-26 h) for 5 days and diluted in 0.399 g (0.4 mL) of MQ water for the reaction kinetics analysis. The diluted sample was analyzed by HPLC. Experimentally measured rates at different concentrations of Ca(OAc)2 were analyzed by the kinetic model (Equations 1-4).
as §1

[5] = at 100° C.; extrapolated; cited from earlier work
[6] = homogeneous (non-immobilized) catalyst, amino acids 82-84 mM, 95% confidential intervals

Structure (SMILES): O=C(O)CCC(C(=O)O)N1C(=O)CCC1=O (centres unmarked) [GA-MAL-H]
- higher kG1H than kG1H for glutamic acid [1]: 31.9%
- rate constant for the active site G1H (kG1H) [1]: 0.000389 M⁻¹ s⁻¹
- suppression of kd,app/kapp compared to glutamic acid [2]: 55.2%
- kapp, apparent rate constant for lactose hydrolysis [2, 6]: 0.0077 ± 0.0002 h⁻¹
- kd,app, apparent rate constant for glucose degradation [2, 6]: 6.11e-07 ± 2.2e-07 s⁻¹

Structure (SMILES): [H+] [H^+]
- rate constant for H^+ (kH+) ([1]; kapp=kH+·[H^+]): 0.0002639 M⁻¹ s⁻¹

Structure (SMILES): O=C(O)CCC(C(=O)O)N1C(=O)C2C(C1=O)C1(CCC(=O)CCC34CCC(CO)(O3)C3C(=O)N(C(CCC(=O)O)C(=O)O)C(=O)C34)CCC2(CO)O1 (centres unmarked) [PHAH-GA-MAL-H]
- higher kG1H than GA-MAL-H [1]: 74.2%
- kG1H relative to glutamic acid [1]: 2.3 times
- rate constant for the active site G1H (kG1H) [1]: 0.000681 M⁻¹ s⁻¹
- kapp, apparent rate constant for lactose hydrolysis ([2]; 37 mM homogeneous catalyst): 0.0117 ± 0.0004 h⁻¹
- kd,app, apparent rate constant for glucose degradation ([2]; 37 mM homogeneous catalyst): 4.44e-07 ± 1.4e-07 s⁻¹
- kapp, apparent rate constant for lactose hydrolysis ([2]; 70 mM homogeneous catalyst): 0.0103±0.0004 h^−
- kd,app, apparent rate constant for glucose degradation ([2]; 70 mM homogeneous catalyst): 2.78e-07 ± 1.7e-07 s⁻¹
- kapp, apparent rate constant for lactose hydrolysis [2, 6]: 0.0117 ± 0.0004 h⁻¹
- kd,app, apparent rate constant for glucose degradation [2, 6]: 4.44e-07 ± 1.4e-07 s⁻¹
- solubility [3]: ~37000 µM and ~27000 µg/mL

Structure (SMILES): CC(=O)O [acetic acid]
- rate constant for the non-dissociated acetic acid (kAA) ([1]; kapp=kH+·[H^+]+kAA·[AA]): 1.42e-06 M⁻¹ s⁻¹
- kapp, apparent rate constant for lactose hydrolysis [2, 6]: 0.0015 ± 0.0001 h⁻¹

Structure (SMILES): N[C@@H](CCC(=O)O)C(=O)O [glutamic acid, L-glutamic acid]
- rate constant for the active site G1H (kG1H) [1]: 0.00029567 M⁻¹ s⁻¹ and 0.000294 M⁻¹ s⁻¹
- Rate of lactose hydrolysis ([4]; [Ca(OAc)2] 24 mM): 0.0005 M/h
- kapp, apparent rate constant for lactose hydrolysis ([4]; [Ca(OAc)2] 24 mM): 0.0011 ± 0.0001 h⁻¹
- Rate of lactose hydrolysis ([4]; [Ca(OAc)2]=0 mM): 0.0026 M/h
- kapp, apparent rate constant for lactose hydrolysis ([4]; [Ca(OAc)2]=0 mM): 0.0060 ± 0.0004 h⁻¹
- Rate of lactose hydrolysis ([4]; [Ca(OAc)2]=5 mM): 0.0016 M/h
- kapp, apparent rate constant for lactose hydrolysis ([4]; [Ca(OAc)2]=5 mM): 0.0037 ± 0.0002 h⁻¹
- Rate of lactose hydrolysis ([4]; [Ca(OAc)2]=16 mM): 0.0007 M/h
- kapp, apparent rate constant for lactose hydrolysis ([4]; [Ca(OAc)2]=16 mM): 0.0016 ± 0.0001 h⁻¹
- kapp, apparent rate constant for lactose hydrolysis [2, 6]: 0.0060 ± 0.0004 h⁻¹
- pKa,G1H (α-carboxylic acid) [5]: 2.24
- pKa,G2H (side-chain carboxylic acid) [5]: 4.55
- pKa,GNH (amine) [5]: 9.12

Structure (SMILES): O=S(=O)(O)O [sulfuric acid]
- kapp, apparent rate constant for lactose hydrolysis [2, 6]: 0.1615 ± 0.0075 h⁻¹
- kd,app, apparent rate constant for glucose degradation [2, 6]: 1.08e-06 ± 5.42e-06 s⁻¹

Structure (SMILES): N[C@@H](Cc1ccc(O)cc1)C(=O)O [tyrosine, L-tyrosine]
- kapp, apparent rate constant for lactose hydrolysis [2, 6]: 0.0004 ± 0.0001 h⁻¹
- kd,app, apparent rate constant for glucose degradation [2, 6]: 1.4e-07 ± 3.22e-06 s⁻¹
